Source: US20250290117A1, “MOLECULAR PHENOTYPIC ANTIMICROBIAL SUSCEPTIBILITY TESTING” (priority 2024, published 2025)

Test system: pathogen of the specimen
Test: Molecular phenotypic antimicrobial susceptibility test with direct PCR at various incubation timepoints (Table 7)
Format: cell-based
Method: Detection of Molecular Phenotypic Antimicrobial Susceptibility. Disclosed herein are the methods for the detection of phenotypic antimicrobial susceptibility via molecular methods. The present invention describes how a specimen 100 with a known microbial load is incubated and then exposed to a panel of antimicrobial agents to determine sensitivity (prevention of growth) or resistance (allowance of growth) to the specific antimicrobial agents tested utilizing molecular methods. Sample Collection. Specimens 100 are collected from patients using sterile collection processes that are employed in routine clinical care. Specimens are transported to the testing facility in boric acid preservative. […] The process for pathogen isolation includes steps of harvesting the pathogen (e.g., via centrifugation), isolating pathogen DNA via a DNA isolation and/or purification kit, and performing PCR on the pathogen DNA via PCR components (e.g., primers, enzymes, buffers) as would be known to the skilled artisan. […] This aliquot is used for antimicrobial susceptibility testing if indicated based on the pathogen detection results. […] Specimens 100 with lower pathogen loads could also be utilized in the antibiotic susceptibility phase of testing with or without a longer incubation period. […] Antimicrobial solutions are prepared at known concentrations. The specific antimicrobials and their concentrations are selected based on the pathogen of interest and the described antimicrobial resistance breakpoints for that specimen pathogen and antimicrobial combination. These antimicrobials have been selected based on those commonly utilized by healthcare providers in routine clinical care for the specific type of suspected infection. The number and types of antimicrobials utilized can be customized based on the infection source, pathogen detected, patient-specific factors such as allergies or other health conditions (e.g., chronic kidney disease or concurrent medication use), or healthcare provider preferences such as antimicrobial availability or cost. The antimicrobial solutions are prepared in liquid culture media (such as Muller Hinton Broth) to achieve the desired antimicrobial concentration and are then stored at −80° C. until use. For a given specimen, each antimicrobial is tested at a single or multiple antimicrobial concentration(s) which is its established breakpoints for sensitivity. The antimicrobial solutions are prepared and plated out for each specific pathogen. […] This allows for evaluation of pathogen load when no antimicrobial is present. Specimen Exposure to Antimicrobial Agents. The 1 mL aliquot of the specimen 100 previously mixed with culture media and incubated is obtained. Using optical density measurements as a guide, the specimen 100 is diluted to 0.5 McFarland. […] Antimicrobial exposure plates are typically placed into an incubator for 12-16 hours. […] Nucleic Acid Amplification of Antimicrobial Agent Exposed Pathogens. The antimicrobial exposure plate is removed after the period of incubation. The specimen then undergoes a purification or lysis step. For example, the specimen may undergo a purification step (e.g., magnetic bead-based or other separation protocol to isolate genetic material). In another example, the specimen may undergo a cell lysis step. For example, buffer (e.g., lysis buffer) may be added and incubated in the thermal cycler for preparation for direct PCR. Next, the specimen may undergo a polymerase chain reaction (PCR) testing protocol, whereby a semi-quantitative PCR method is utilized. This may be completed either with or without a specific extraction protocol step. The pathogens can be individually targeted and detected, or a universal genetic sequence can be utilized to detect the antimicrobial susceptibility of the specimen as a whole. The control wells are utilized as a threshold for determining antimicrobial sensitivity or resistance. […] Antimicrobial Susceptibility Result Interpretation.

[1] = E. coli isolate 1189, antibiotic incubation time 4 hours
[2] = E. coli isolate 1189, antibiotic incubation time 6 hours
[3] = E. coli isolate 1189, antibiotic incubation time 6 hours, control average Ct 16.992
[4] = E. coli isolate 1189, antibiotic incubation time 8 hours
[5] = E. coli isolate 1189, antibiotic incubation time 10 hours
[6] = E. coli isolate 1189, antibiotic incubation time 12 hours
[7] = E. coli isolate 1189, antibiotic incubation time 12 hours, control average Ct 15.495
[8] = E. coli isolate 1189, antibiotic incubation time 14 hours
[9] = E. coli isolate 1189, antibiotic incubation time 14 hours, control average Ct 15.826
[10] = E. coli isolate 1189, antibiotic incubation time 16 hours
[11] = E. coli isolate 1189, antibiotic incubation time 16 hours, control average Ct 14.880
[12] = E. coli isolate 1189, antibiotic incubation time 4 hours, control average Ct […]
[13] = E. coli isolate 1189, antibiotic incubation time 8 hours, control average Ct […]
[14] = E. coli isolate 1189, antibiotic incubation time 10 hours, control average Ct 15.995

| Compound | Molecular Antimicrobial Susceptibility Result [1] | Molecular Antimicrobial Susceptibility Result [2] | Ct at Sensitive Breakpoint [3] | Molecular Antimicrobial Susceptibility Result [4] | Molecular Antimicrobial Susceptibility Result [5] | Molecular Antimicrobial Susceptibility Result [6] | Ct at Sensitive Breakpoint [7] | Molecular Antimicrobial Susceptibility Result [8] | Ct at Sensitive Breakpoint [9] | Molecular Antimicrobial Susceptibility Result [10] | Ct at Sensitive Breakpoint [11] | Ct at Sensitive Breakpoint [12] | Ct at Sensitive Breakpoint [13] | Ct at Sensitive Breakpoint [14] |
| --- | --- | --- | --- | --- | --- | --- | --- | --- | --- | --- | --- | --- | --- | --- |
| CC1(C)S[C@@H]2[C@H](NC(=O)[C@H](N)c3ccccc3)C(=O)N2[C@H]1C(=O)O [Ampicillin] | Resistant | Resistant | 15.362 | Resistant | Resistant | Resistant | 15.183 | Resistant | 15.465 | Resistant | 15.036 | – | – | – |
| Cc1nnc(SCC2=C(C(=O)O)N3C(=O)[C@@H](NC(=O)Cn4cnnn4)[C@H]3SC2)s1 [Cefazolin] | Resistant | Resistant | 16.328 | Resistant | Resistant | Resistant | 15.126 | Resistant | 17.599 | Resistant | 15.199 | 16.209 | 17.305 | 15.756 |
| CO/N=C(\C(=O)N[C@@H]1C(=O)N2C(C(=O)[O-])=C(C[N+]3(C)CCCC3)CS[C@H]12)c1csc(N)n1 [Cefepime] | Sensitive (Antimicrobial wells with pathogen load detected below the control wells (typically >2 cycle thresholds later) may be reported as Sensitive) | Sensitive (Antimicrobial wells with pathogen load detected below the control wells (typically >2 cycle thresholds later) may be reported as Sensitive) | 20.178 | Sensitive (Antimicrobial wells with pathogen load detected below the control wells (typically >2 cycle thresholds later) may be reported as Sensitive) | Sensitive (Antimicrobial wells with pathogen load detected below the control wells (typically >2 cycle thresholds later) may be reported as Sensitive) | Sensitive (Antimicrobial wells with pathogen load detected below the control wells (typically >2 cycle thresholds later) may be reported as Sensitive) | 22.447 | Sensitive (Antimicrobial wells with pathogen load detected below the control wells (typically >2 cycle thresholds later) may be reported as Sensitive) | 22.420 | Sensitive (Antimicrobial wells with pathogen load detected below the control wells (typically >2 cycle thresholds later) may be reported as Sensitive) | 23.502 | 20.399 | 21.204 | 21.613 |
| CO[C@@]1(NC(=O)Cc2cccs2)C(=O)N2C(C(=O)O)=C(COC(N)=O)CS[C@@H]21 [Cefoxitin] | Resistant | Resistant | 15.865 | Resistant | Resistant | Resistant | 15.750 | Resistant | 15.333 | Resistant | 13.704 | 17.798 | 16.837 | 14.899 |
| CO/N=C(\C(=O)N[C@@H]1C(=O)N2C(C(=O)O)=C(CSc3nc(=O)c(=O)[nH]n3C)CS[C@H]12)c1csc(N)n1 [Ceftriaxone] | Resistant | Resistant | 16.838 | Resistant | Resistant | Resistant | 16.258 | Resistant | 14.724 | Resistant | 15.840 | 16.185 | 17.431 | 16.347 |
| O=C(O)c1cn(C2CC2)c2cc(N3CCNCC3)c(F)cc2c1=O [Ciprofloxacin] | Sensitive (Antimicrobial wells with pathogen load detected below the control wells (typically >2 cycle thresholds later) may be reported as Sensitive) | Sensitive (Antimicrobial wells with pathogen load detected below the control wells (typically >2 cycle thresholds later) may be reported as Sensitive) | 27.144 | Sensitive (Antimicrobial wells with pathogen load detected below the control wells (typically >2 cycle thresholds later) may be reported as Sensitive) | Sensitive (Antimicrobial wells with pathogen load detected below the control wells (typically >2 cycle thresholds later) may be reported as Sensitive) | Sensitive (Antimicrobial wells with pathogen load detected below the control wells (typically >2 cycle thresholds later) may be reported as Sensitive) | 27.182 | Sensitive (Antimicrobial wells with pathogen load detected below the control wells (typically >2 cycle thresholds later) may be reported as Sensitive) | 27.128 | Sensitive (Antimicrobial wells with pathogen load detected below the control wells (typically >2 cycle thresholds later) may be reported as Sensitive) | 28.446 | 27.666 | 28.104 | 27.715 |
| C[C@H]1COc2c(N3CCN(C)CC3)c(F)cc3c(=O)c(C(=O)O)cn1c23 [Levofloxacin] | Sensitive (Antimicrobial wells with pathogen load detected below the control wells (typically >2 cycle thresholds later) may be reported as Sensitive) | Sensitive (Antimicrobial wells with pathogen load detected below the control wells (typically >2 cycle thresholds later) may be reported as Sensitive) | 26.759 | Sensitive (Antimicrobial wells with pathogen load detected below the control wells (typically >2 cycle thresholds later) may be reported as Sensitive) | Sensitive (Antimicrobial wells with pathogen load detected below the control wells (typically >2 cycle thresholds later) may be reported as Sensitive) | Sensitive (Antimicrobial wells with pathogen load detected below the control wells (typically >2 cycle thresholds later) may be reported as Sensitive) | 26.835 | Sensitive (Antimicrobial wells with pathogen load detected below the control wells (typically >2 cycle thresholds later) may be reported as Sensitive) | 27.545 | Sensitive (Antimicrobial wells with pathogen load detected below the control wells (typically >2 cycle thresholds later) may be reported as Sensitive) | 27.791 | 27.130 | 27.068 | 27.170 |
